Legend:
[1] = tested on: PCB490-3 (human epithelioid sarcoma primary culture)
Procedure: (§1)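 Roche open-access kinase inhibitor screen (223 compounds) on human epithelioid sarcoma primary cultures from three spatially distinct regions of tumor PCB490. 384-well plates, 72 h, CellTiter-Glo viability; IC50 by Hill curve fit. 100000 nM = no IC50 reached. Compound ids carry a plate-well prefix, which is stripped.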

[2] = tested on: PCB490-4 (human epithelioid sarcoma primary culture)
Procedure: as §1

[3] = tested on: PCB490-5 (human epithelioid sarcoma primary culture)
Procedure: as §1

| Compound | IC50 cell viability [1] | IC50 cell viability [2] | IC50 cell viability [3] |
| --- | --- | --- | --- |
| O=C1NC(=NCCc2cccc(F)c2)S/C1=C\c1ccc2ncccc2c1 | > 100 µM | > 100 µM | > 100 µM |
| Cn1cc(C2=C(c3cccc(OC[C@H](O)CO)c3)C(=O)NC2=O)c2ccccc21 | > 100 µM | > 100 µM | > 100 µM |
| Cn1cc(C2=C(c3ccc(OCC(O)CO)cc3)C(=O)NC2=O)c2ccccc21 (stereo unspecified) | > 100 µM | > 100 µM | > 100 µM |
| COc1cccc(C2=C(c3cn(C)c4c(C)cccc34)C(=O)NC2=O)c1 | > 100 µM | > 100 µM | > 100 µM |
| COc1cccc(C2=C(c3cn(C)c4cc(F)ccc34)C(=O)NC2=O)c1 | > 100 µM | > 100 µM | > 100 µM |
| Cn1cc(C2=C(c3cccc(NCC(O)CO)c3)C(=O)NC2=O)c2cc(Cl)ccc21 (stereo unspecified) | > 100 µM | 2 µM | 2.34 µM |
| Cn1cc(C2=C(c3cccc(Cl)c3)C(=O)NC2=O)c2ccccc21 | > 100 µM | > 100 µM | > 100 µM |
| Cc1c(C2=C(c3cn(C)c4ccccc34)C(=O)NC2=O)c2ccccc2n1C | > 100 µM | > 100 µM | > 100 µM |
| O=C1NC(=N[C@@H]2C[C@H]2c2ccccc2)S/C1=C\c1ccc2ncccc2c1 | > 100 µM | > 100 µM | > 100 µM |
| Cn1cc(C2=C(c3cccc(OCC(O)CO)c3)C(=O)NC2=O)c2ccccc21 (stereo unspecified) | > 100 µM | > 100 µM | > 100 µM |
| Cn1cc(C2=C(c3cn(C)c4ccc(OCc5ccccc5)cc34)C(=O)NC2=O)c2ccccc21 | > 100 µM | > 100 µM | > 100 µM |
| Cn1cc(C2=C(c3cn(CCCN/C(N)=N/[N+](=O)[O-])c4ccccc34)C(=O)NC2=O)c2ccccc21 | > 100 µM | > 100 µM | > 100 µM |
| Cn1cc(C2=C(c3cccc(Br)c3)C(=O)NC2=O)c2ccccc21 | > 100 µM | > 100 µM | > 100 µM |
| Cn1cc(C2=C(Nc3ccccc3)C(=O)NC2=O)c2ccccc21 | > 100 µM | > 100 µM | > 100 µM |
| O=c1[nH]c2nc(NC3CCOCC3)ncc2cc1Oc1ccc(F)cc1F | > 100 µM | > 100 µM | > 100 µM |
| Cn1cc(C2=C(c3cn(C)c4cc(C(=O)O)ccc34)C(=O)NC2=O)c2ccccc21 | > 100 µM | > 100 µM | > 100 µM |
| COc1ccc(CCN=C2NC(=O)/C(=C/c3ccc4ncccc4c3)S2)cc1 | > 100 µM | > 100 µM | > 100 µM |
| N#Cc1ccc(C(=O)c2cnn(-c3ccc(F)cc3)c2N)cc1 | > 100 µM | > 100 µM | > 100 µM |
| O=C1NC(=NCCc2ccccc2F)S/C1=C\c1ccc2ncccc2c1 | > 100 µM | > 100 µM | > 100 µM |
| Nc1c(C(=O)c2cccc(-c3ccncc3)c2)cnn1-c1ccc(F)cc1 | > 100 µM | > 100 µM | > 100 µM |
| Cn1c(=O)c(Oc2ccc(F)cc2F)cc2cnc(N[C@H]3CCOC3)nc21 | > 100 µM | > 100 µM | > 100 µM |
| CCCn1cc(C2=C(c3cn(C)c4ccccc34)C(=O)NC2=O)c2ccccc21 | > 100 µM | > 100 µM | > 100 µM |
